Laboratory results from ChEMBL document CHEMBL1121594, “Adaptive least-squares method applied to structure--activity correlation of hypotensive N-alkyl-N''-cyano-N'-pyridylguanidines” (J Med Chem, 1980).

How the values were obtained:
Format in all cases: organism-based
Conditions in all cases: in vivo
Rattus norvegicus [1] = assay: The hypotensive activity expressed as rating of therapeutic index (MED/LD50 >=1/30).
Rattus norvegicus [2] = assay: The hypotensive activity expressed as rating of therapeutic index (MED/LD50 <1/200).
Rattus norvegicus [3] = assay: The hypotensive activity expressed as rating of therapeutic index (1/30> MED/LD50 >=1/200).

## CCN(CC)CC/N=C(\NC#N)Nc1cccnc1
Rattus norvegicus [1]
  TI rating: 1

## CCC(C)(CC)/N=C(\NC#N)Nc1cccnc1
Rattus norvegicus [2]
  TI rating: 3

## CC(C)CC/N=C(\NC#N)Nc1cccnc1
Rattus norvegicus [3]
  TI rating: 2

## CCC(/N=C(\NC#N)Nc1ccncc1)C(C)C (stereo not given)
Rattus norvegicus [3]
  TI rating: 2

## CC(C)C(C)(C)/N=C(\NC#N)Nc1cccnc1
Rattus norvegicus [2]
  TI rating: 3

## CCOCC/N=C(\NC#N)Nc1cccnc1
Rattus norvegicus [1]
  TI rating: 1

## CCC(C)(CC)/N=C(\NC#N)Nc1ccncc1
Rattus norvegicus [2]
  TI rating: 3

## N#CN/C(=N\C1CCCCC1)Nc1ccccn1
Rattus norvegicus [1]
  TI rating: 1

## CC(C)CC(C)(C)/N=C(\NC#N)Nc1ccncc1
Rattus norvegicus [3]
  TI rating: 2

## N#CN/C(=N\c1cccnc1)N1CCCCC1
Rattus norvegicus [3]
  TI rating: 2

## CCCC(C)(C)/N=C(\NC#N)Nc1cccnc1
Rattus norvegicus [2]
  TI rating: 3

## N#CN/C(=N\CC1CCCO1)Nc1cccnc1 (stereo not given)
Rattus norvegicus [1]
  TI rating: 1

## N#CN/C(=N\C(C1CC1)C1CC1)Nc1ccncc1
Rattus norvegicus [3]
  TI rating: 2

## CC(C)C(/N=C(\NC#N)Nc1cccnc1)C(C)C
Rattus norvegicus [2]
  TI rating: 3

## CC(C)CC(C)/N=C(\NC#N)Nc1ccncc1 (stereo not given)
Rattus norvegicus [1]
  TI rating: 1

## CCCCC/N=C(\NC#N)Nc1cccnc1
Rattus norvegicus [3]
  TI rating: 2

## CCC(C)C(C)/N=C(\NC#N)Nc1ccncc1 (stereo not given)
Rattus norvegicus [1]
  TI rating: 1

## CC(C)(C)C(C)(C)/N=C(\NC#N)Nc1ccncc1
Rattus norvegicus [3]
  TI rating: 2

## Cc1cc(C)nc(N/C(=N/C(C)(C)C)NC#N)c1
Rattus norvegicus [1]
  TI rating: 1

## CC(C)(NC(=NC#N)Nc1cccnc1)c1ccccc1
Rattus norvegicus [1]
  TI rating: 1

## CCCCC(CC)C/N=C(\NC#N)Nc1cccnc1 (stereo not given)
Rattus norvegicus [1]
  TI rating: 1

## CC(C)C/N=C(\NC#N)Nc1cccnc1
Rattus norvegicus [3]
  TI rating: 2

## N#CN/C(=N\CCc1ccccc1)Nc1cccnc1
Rattus norvegicus [1]
  TI rating: 1

## N#CN/C(=N\C1CC1)Nc1cccnc1
Rattus norvegicus [3]
  TI rating: 2

## CCCCCCC/N=C(\NC#N)Nc1cccnc1
Rattus norvegicus [1]
  TI rating: 1

## N#CN/C(=N\Cc1ccccc1)Nc1ccncc1
Rattus norvegicus [3]
  TI rating: 2

## CC(/N=C(\NC#N)Nc1ccncc1)C1CC1 (stereo not given)
Rattus norvegicus [3]
  TI rating: 2

## N#CNC(=N)Nc1cccnc1
Rattus norvegicus [1]
  TI rating: 1

## N#CN/C(=N\C1CCCC1)Nc1cccnc1
Rattus norvegicus [3]
  TI rating: 2

## Cc1cc(C)c(/N=C(\NC#N)NC(C)(C)C)c(C)n1
Rattus norvegicus [1]
  TI rating: 1

## N#CN/C(=N\Cc1ccco1)Nc1cccnc1
Rattus norvegicus [3]
  TI rating: 2

## N#CN/C(=N\C1CCCCC1)Nc1ccncc1
Rattus norvegicus [1]
  TI rating: 1

## CC(C)(C)/N=C(\NC#N)Nc1cccnc1Cl
Rattus norvegicus [2]
  TI rating: 3

## CC(C)CC(C)(C)/N=C(\NC#N)Nc1cccnc1
Rattus norvegicus [2]
  TI rating: 3

## CC(C)(C)/N=C(\NC#N)Nc1ccncc1
Rattus norvegicus [2]
  TI rating: 3

## CC(C)(C)C/N=C(/NC#N)Nc1cccnc1
Rattus norvegicus [2]
  TI rating: 3

## CC(C)C(C)(C)/N=C(\NC#N)Nc1ccncc1
Rattus norvegicus [3]
  TI rating: 2

## CC(C)(C)/N=C(\NC#N)Nc1ccc(Cl)cn1
Rattus norvegicus [1]
  TI rating: 1

## CCCC/N=C(\NC#N)Nc1cccnc1
Rattus norvegicus [3]
  TI rating: 2

## CC(C)(C)/N=C(\NC#N)Nc1ccccn1
Rattus norvegicus [1]
  TI rating: 1

## CC(/N=C(/NC#N)Nc1cccnc1)C(C)(C)C (stereo not given)
Rattus norvegicus [2]
  TI rating: 3

## CCC(C)(C)NC(=NC#N)Nc1cccnc1
Rattus norvegicus [2]
  TI rating: 3

## CC(C)(C)CC(C)(C)/N=C(\NC#N)Nc1ccncc1
Rattus norvegicus [1]
  TI rating: 1

## CCC/N=C(\NC#N)Nc1cccnc1
Rattus norvegicus [3]
  TI rating: 2

## CC1(/N=C(\NC#N)Nc2cccnc2)CCC1
Rattus norvegicus [1]
  TI rating: 1

## CCC(C)/N=C(\NC#N)Nc1cccnc1 (stereo not given)
Rattus norvegicus [3]
  TI rating: 2

## N#CN/C(=N\c1ccccc1)Nc1ccncc1
Rattus norvegicus [1]
  TI rating: 1

## CC(C)CCC(C)/N=C(\NC#N)Nc1ccncc1 (stereo not given)
Rattus norvegicus [1]
  TI rating: 1

## CC(C)(C)/N=C(\NC#N)Nc1ccc(Cl)nc1Cl
Rattus norvegicus [1]
  TI rating: 1

## N#CN/C(=N\C1CCCCC1)Nc1cccnc1
Rattus norvegicus [3]
  TI rating: 2

## CC(C)(C)CC(C)(C)/N=C(\NC#N)Nc1cccnc1
Rattus norvegicus [1]
  TI rating: 1

## N#CN/C(=N\C12C[C@H]3C[C@@H](C1)C[C@@H](C2)C3)Nc1ccncc1
Rattus norvegicus [2]
  TI rating: 3

## CC(C)(C)/N=C(/NC#N)Nc1cccnc1
Rattus norvegicus [2]
  TI rating: 3

## COc1ccc(/N=C(\NC#N)NC(C)(C)C)c(OC)n1
Rattus norvegicus [1]
  TI rating: 1

## CC(C)(C)C(C)(C)/N=C(\NC#N)Nc1cccnc1
Rattus norvegicus [1]
  TI rating: 1

## N#CN/C(=N\c1ccccc1)Nc1cccnc1
Rattus norvegicus [3]
  TI rating: 2

## C=C(C)C/N=C(\NC#N)Nc1cccnc1
Rattus norvegicus [3]
  TI rating: 2

## CC(C)C(/N=C(\NC#N)Nc1ccncc1)C(C)C
Rattus norvegicus [1]
  TI rating: 1

## CCC(CC)/N=C(\NC#N)Nc1cccnc1
Rattus norvegicus [1]
  TI rating: 1

## N#CN/C(=N\Cc1ccccc1)Nc1cccnc1
Rattus norvegicus [3]
  TI rating: 2

## N#CN/C(=N\C1CCCCCCC1)Nc1ccncc1
Rattus norvegicus [1]
  TI rating: 1

## CC(C)(C)C/N=C(\NC#N)Nc1ccncc1
Rattus norvegicus [3]
  TI rating: 2

## CC(C)/N=C(\NC#N)Nc1cccnc1
Rattus norvegicus [2]
  TI rating: 3

## CCC(CC)(CC)/N=C(\NC#N)Nc1ccncc1
Rattus norvegicus [2]
  TI rating: 3

## CCC(CC)(CC)/N=C(\NC#N)Nc1cccnc1
Rattus norvegicus [2]
  TI rating: 3

## Cc1cccc(C)c1/N=C(\NC#N)Nc1cccnc1
Rattus norvegicus [1]
  TI rating: 1

## CCC(C)(C)/N=C(\NC#N)Nc1c(C)cc(C)nc1C
Rattus norvegicus [1]
  TI rating: 1

## N#CN/C(=N\C12C[C@H]3C[C@@H](C1)C[C@@H](C2)C3)Nc1cccnc1
Rattus norvegicus [1]
  TI rating: 1

## N#CN/C(=N\CCc1ccccc1)Nc1ccncc1
Rattus norvegicus [3]
  TI rating: 2

## CCC(CC)/N=C(\NC#N)Nc1ccncc1
Rattus norvegicus [3]
  TI rating: 2

## CC(/N=C(\NC#N)Nc1ccncc1)c1ccccc1 (stereo not given)
Rattus norvegicus [3]
  TI rating: 2

## C/N=C(\NC#N)Nc1cccnc1
Rattus norvegicus [1]
  TI rating: 1

## COc1ccc(N/C(=N/C(C)(C)C)NC#N)cn1
Rattus norvegicus [1]
  TI rating: 1

## CCC(C)(C)/N=C(\NC#N)Nc1ccncc1
Rattus norvegicus [2]
  TI rating: 3

## CC(C)(C)/N=C(\NC#N)Nc1cncc(Br)c1
Rattus norvegicus [2]
  TI rating: 3
